Consider 22 compounds from the SangsterLogP compilation.

For orientation: logP means a log measure of how a compound divides between an organic and an aqueous phase.

Take `Cc1cc(C)nc(NC(=O)Cc2ccc(Br)cc2)c1`: the logP was determined as 4.07. With `Cc1cc(C)nc(NC(=O)c2ccc([N+](=O)[O-])o2)c1` the figure was 2.39. In the case of `Cc1cc(C)nc(NC(=O)c2cc3ccccc3s2)c1`, the lipophilicity (logP) was found to be 4.08. For `Cc1cc(C)nc(NC(=S)c2ccc(C)o2)c1`, the logP was found to be 3.2. With `Cc1cc(C)nc(NC(=O)c2ccc(C)o2)c1`, the lipophilicity (logP) is 2.75. The compound `Cc1cc(C)nc(NC(=S)c2ccccc2)c1` gave a log partition coefficient (logP) of 3.45.

Turning to `Cc1cc(C)nc(NC(=O)c2ccccc2)c1`, the lipophilicity (logP) is 3.09. With `Cc1cc(C)nc(NC(=O)c2cccc(F)c2)c1` the figure was 3.31; with `Cc1cc(C)nc(NC(=O)c2ccc(Br)o2)c1`, 3.22.

Regarding `Cc1cc(C)nc(NC(=O)c2ccc(Br)s2)c1`, the log partition coefficient (logP) was determined as 3.74. Consider `CC(=O)Oc1ccccc1C(=O)Nc1cc(C)cc(C)n1`, for which the log partition coefficient (logP) was determined as 2.35.

`Cc1cc(C)nc(NC(=O)c2cccc(Cl)c2)c1` gave a logP of 3.88. With `Cc1cc(C)nc(NC(=O)C(C)c2ccccc2)c1` (configuration not stated), the log partition coefficient (logP) stood at 3.67. With `COc1cccc2cc(C(=O)Nc3cc(C)cc(C)n3)oc12` the figure was 4.27. Turning to `Cc1cc(C)nc(NC(=O)c2ccco2)c1`, the logP came out at 2.25.

Turning to `Cc1cc(C)nc(NC(=O)c2cccn2C)c1`, the log partition coefficient (logP) stood at 2.42. With `Cc1cc(C)nc(NC(=O)c2cccs2)c1` the figure was 2.77; with `Cc1cc(C)nc(NC(=O)c2cc3ccccc3o2)c1`, 3.54. With `Cc1cc(C)nc(NC(=O)c2cccc(C#N)c2)c1` the figure was 2.88; with `Cc1cc(C)nc(NC(=O)c2cccc([N+](=O)[O-])c2)c1`, 3.13. With `Cc1cc(C)nc(NC(=O)c2cccc(Br)c2)c1` the figure was 4.04; with `Cc1cc(C)nc(NC(=O)C(c2ccccc2)c2ccccc2)c1`, 4.77.
